The values below come from patent US20250230155A1 (Vanderbilt University, priority 2021, published 2025).

Broadly, the Emax is the greatest response seen or fitted, relative to the assay's reference. By EC50 is commonly meant the midpoint of the concentration-response curve.

The target of this test is T1, human mAChR M4 (Homo sapiens, UniProt P08173).
T1 construct: expressed in transfected cells
T1 sequence (P08173 1-479): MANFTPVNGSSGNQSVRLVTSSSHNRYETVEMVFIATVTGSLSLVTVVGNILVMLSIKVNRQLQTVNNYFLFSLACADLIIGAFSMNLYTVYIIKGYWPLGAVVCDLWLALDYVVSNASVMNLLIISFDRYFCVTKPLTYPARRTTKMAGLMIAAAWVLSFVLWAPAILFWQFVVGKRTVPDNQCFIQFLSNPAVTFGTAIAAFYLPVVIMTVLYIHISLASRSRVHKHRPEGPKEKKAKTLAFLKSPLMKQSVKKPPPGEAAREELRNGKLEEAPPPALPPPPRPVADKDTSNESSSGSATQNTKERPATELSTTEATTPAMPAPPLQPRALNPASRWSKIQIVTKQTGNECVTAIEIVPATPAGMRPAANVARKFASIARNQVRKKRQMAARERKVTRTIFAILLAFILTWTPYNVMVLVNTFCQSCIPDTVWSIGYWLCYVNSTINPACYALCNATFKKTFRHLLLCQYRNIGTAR
Put plainly: mAChR M4 cell-based functional assay (calcium mobilization, CHO-K1 hM4-Gqi5 cells). To be noted: for Emax at 30 µM: CHO-K1, % ACh maximum at 30 μM, human M4; for EC50: positive allosteric modulator activity, increase in the EC20 acetylcholine response, CHO-K1 hM4-Gqi5 cells, read-out: Human M4 EC50. Put shortly:
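Fluorescent calcium read-out (Fluo-4 AM, FDSS, 1 Hz) in hM4-Gqi5 CHO-K1 cells, 11-point 1:3 compound series. Agonism scored on compound addition, PAM activity as increase of the 144 s EC20 acetylcholine response, antagonism as decrease of the 230 s EC80 response; four-parameter logistic fits give EC50 and Emax.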
In general terms: Calcium assays in cells follow changes in intracellular calcium, usually with a dye or a luminescent sensor.

Where only a bound is given, the exact number is not on record here.

For the molecule `Cc1cc(C#N)cnc1N1CCc2ncc(Nc3c(F)cccc3Cl)cc2C1` [compound 111, 6-[3-(2-chloro-6-fluoro-anilino)-7,8-dihydro-5H-1,6-naphthyridin-6-yl]-5-methyl-pyridine-3-carbonitrile], the Emax at 30 µM turned out to be 93% and the EC50 came to 345 nM.
For `[2H]C1([2H])Cc2ncc(-c3ccnn3C)cc2C([2H])([2H])N1c1nnc(C#N)cc1C` [Example 617, 5-methyl-6-(3-(1-methyl-1H-pyrazol-5-yl)-7,8-dihydro-1,6-naphthyridin-6(5H)-yl-5,5,7,7-d4)pyridazine-3-carbonitrile] the same measures were 88% and 2460 nM.
For `Cc1cnc2c(c1)CN(c1ncc(C(=O)Nc3ccncc3)cc1C)CC2` [Example 438, 5-methyl-6-(3-methyl-7,8-dihydro-1,6-naphthyridin-6(5H)-yl)-N-(pyridin-4-yl)nicotinamide] the same measures were 88% and 517 nM.
For `Cc1c(Cl)nc(C(F)(F)F)nc1N1CCc2ncc(N3CCCn4nccc43)cc2C1` [compound 248, 6-(6-chloro-5-methyl-2-(trifluoromethyl)pyrimidin-4-yl)-3-(6,7-dihydropyrazolo[1,5-a]pyrimidin-4(5H)-yl)-5,6,7,8-tetrahydro-1,6-naphthyridine] the same measures were 88% and 300 nM.
In the case of `Cc1nn(C)c(C)c1-c1cnc2c(c1)CN(c1nnc(C#N)c(C)c1C)CC2` [Example 296, 4,5-dimethyl-6-(3-(1,3,5-trimethyl-1H-pyrazol-4-yl)-7,8-dihydro-1,6-naphthyridin-6(5H)-yl)pyridazine-3-carbonitrile], the Emax at 30 µM was 101% and the EC50 was determined as 191 nM.
In the same order, the values of `Cc1cc(C(=O)NCc2ncc(F)cn2)cnc1N1CCc2ncccc2C1` [compound 147, 6-(7,8-dihydro-5H-1,6-naphthyridin-6-yl)-N-[(5-fluoropyrimidin-2-yl)methyl]-5-methyl-pyridine-3-carboxamide] are 52% and at least 10000 nM.
For `Cc1cc(C(=O)NCc2ccncc2)cnc1N1CCc2ncc(-c3cccnc3F)cc2C1` [compound 178, 6-[3-(2-fluoro-3-pyridyl)-7,8-dihydro-5H-1,6-naphthyridin-6-yl]-5-methyl-N-(4-pyridylmethyl)pyridine-3-carboxamide] the same measures were 87% and 262 nM.
For `Cc1c(C#N)nnc(N2CCc3ncc(Oc4cccc(F)c4F)cc3C2)c1C` [Example 352, 6-(3-(2,3-difluorophenoxy)-7,8-dihydro-1,6-naphthyridin-6(5H)-yl)-4,5-dimethylpyridazine-3-carbonitrile] the same measures were 64% and 233 nM.
Regarding `Cc1cc(C(=O)N2CCOCC2)nnc1N1CCc2ncc(CC(F)(F)F)cc2C1` [Example 587, (5-methyl-6-(3-(2,2,2-trifluoroethyl)-7,8-dihydro-1,6-naphthyridin-6(5/)-yl)pyridazin-3-yl)(morpholino)methanone], the Emax at 30 µM came to 69% and the EC50 amounted to 6540 nM.
For `Cc1nc(Cl)c(C)c(N2CCc3ncc(-c4ccc(F)nc4)cc3C2)n1` [compound 224, 6-(6-chloro-2,5-dimethylpyrimidin-4-yl)-3-(6-fluoropyridin-3-yl)-5,6,7,8-tetrahydro-1,6-naphthyridine] the same measures were 82% and 214 nM.
Regarding `Cc1cc(C#N)cnc1N1CCc2ncc(-n3nccc3C)cc2C1` [Example 345, 5-methyl-6-(3-(5-methyl-1H-pyrazol-1-yl)-7,8-dihydro-1,6-naphthyridin-6(5H)-yl)nicotinonitrile], the Emax at 30 µM is 86% and the concentration for a half-maximal effect (EC50) was found to be 341 nM.
Consider `Cc1cc2c(nc1N1CCc3ncc(C(F)(F)F)cc3C1)OCCN(Cc1ccccc1)C2=O` [Example 592, 4-benzyl-7-methyl-8-(3-(trifluoromethyl)-7,8-dihydro-1,6-naphthyridin-6(5H)-yl)-3,4-dihydropyrido[3,2-f][1,4]oxazepin-5(2H)-one], for which the Emax at 30 µM was 38% and the EC50 was 292 nM.
For `Cc1cc(C#N)nnc1N1CCc2ncc(-c3c(C)noc3C)cc2C1` [Example 401, 6-(3-(3,5-dimethylisoxazol-4-yl)-7,8-dihydro-1,6-naphthyridin-6(5H)-yl)-5-methylpyridazine-3-carbonitrile] the same measures were 76% and 522 nM.
For `COc1cc(-c2cnc3c(c2)CN(c2ncc(C#N)cc2C)CC3)c(Cl)cn1` [Example 341, 6-(3-(5-chloro-2-methoxypyridin-4-yl)-7,8-dihydro-1,6-naphthyridin-6(5H)-yl)-5-methylnicotinonitrile] the same measures were 49% and 1490 nM.
In the same order, the values of `Cc1cc(-c2cnc3c(c2)CN(c2nnc(C(=O)NCc4ccncc4)c(C)c2C)CC3)ccn1` [compound 189, 4,5-dimethyl-6-[3-(2-methyl-4-pyridyl)-7,8-dihydro-5H-1,6-naphthyridin-6-yl]-N-(4-pyridylmethyl)pyridazine-3-carboxamide] are 93% and 199 nM.
As for `Cc1c(C#N)nnc(N2CCc3ncc(Nc4ccccc4N(C)C)cc3C2)c1C` [compound 40, 6-[3-[2-(dimethylamino)anilino]-7,8-dihydro-5H-1,6-naphthyridin-6-yl]-4,5-dimethyl-pyridazine-3-carbonitrile], the Emax at 30 µM turned out to be 51% and the EC50 stood at 910 nM.
In the same order, the values of `Cc1cc(C(=O)N2CCCC2)nnc1N1CCc2ncc(N3CCO[C@H](C)C3)cc2C1` [Example 536, (R)-(5-methyl-6-(3-(2-methylmorpholino)-7,8-dihydro-1,6-naphthyridin-6(5H)-yl)pyridazin-3-yl)(pyrrolidin-1-yl)methanone] are 86% and 1150 nM.
For `Cc1cc(C(=O)NC2(C#N)CC2)nnc1N1CCc2ncc(N3CCCn4nccc43)cc2C1` [Example 525, N-(1-cyanocyclopropyl)-6-(3-(6,7-dihydropyrazolo[1,5-a]pyrimidin-4(5H)-yl)-7,8-dihydro-1,6-naphthyridin-6(5H)-yl)-5-methylpyridazine-3-carboxamide] the same measures were 82% and 11 nM.
In the same order, the values of `Cc1nn(C)cc1-c1cnc2c(c1)CN(c1nnc(C#N)c(C)c1C)CC2` [compound 295, 6-(3-(1,3-dimethyl-1H-pyrazol-4-yl)-7,8-dihydro-1,6-naphthyridin-6(5H)-yl)-4,5-dimethylpyridazine-3-carbonitrile] are 95% and 485 nM.
For the molecule `[2H]C1([2H])Cc2ncc(Nc3ccccc3F)cc2C([2H])([2H])N1c1nnc(C#N)cc1C` [Example 611, 6-(3-((2-fluorophenyl)amino)-7,8-dihydro-1,6-naphthyridin-6(5H)-yl-5,5,7,7-d4)-5-methylpyridazine-3-carbonitrile], the Emax at 30 µM worked out at 86% and the EC50 was found to be 8 nM.
`CCCCn1nc(C)cc1Nc1cnc2c(c1)CN(c1ncc(C#N)cc1C)CC2` [Example 315, 6-(3-((1-butyl-3-methyl-1H-pyrazol-5-yl)amino)-7,8-dihydro-1,6-naphthyridin-6(5H)-yl)-5-methylnicotinonitrile]: the Emax at 30 µM was 47% and the EC50 came out at 961 nM.
In the same order, the values of `Cc1cc(C(=O)NCc2cnc3c(c2)CCC3)cnc1N1CCc2ncccc2C1` [compound 155, N-(6,7-dihydro-5H-cyclopenta[b]pyridin-3-ylmethyl)-6-(7,8-dihydro-5H-1,6-naphthyridin-6-yl)-5-methyl-pyridine-3-carboxamide] are 63% and 3910 nM.
For `Cc1cc(F)ncc1-c1cnc2c(c1)CN(c1nnc(C#N)c(C)c1C)CC2` [Example 320, 6-(3-(6-fluoro-4-methylpyridin-3-yl)-7,8-dihydro-1,6-naphthyridin-6(5H)-yl)-4,5-dimethylpyridazine-3-carbonitrile] the same measures were 54% and 2680 nM.
In the same order, the values of `Cc1cc(C#N)cnc1N1CCc2ncc(-c3ccns3)cc2C1` [compound 291, 6-(3-(isothiazol-5-yl)-7,8-dihydro-1,6-naphthyridin-6(5H)-yl)-5-methylnicotinonitrile] are 96% and 88 nM.
Consider `Cc1nc(Cl)c(C)c(N2CCc3ncccc3C2)n1` [compound 83, 6-(6-chloro-2,5-dimethyl-pyrimidin-4-yl)-7,8-dihydro-5H-1,6-naphthyridine], for which the EC50 came to 1540 nM. Besides, where the note is “CHO-K1”, the Emax came out at 77%.
Take `COCc1nc(Cl)c(C)c(N2CCc3ncc(-c4cn(C)nc4C)cc3C2)n1` [compound 216, 6-(6-chloro-2-(methoxymethyl)-5-methylpyrimidin-4-yl)-3-(1,3-dimethyl-1H-pyrazol-4-yl)-5,6,7,8-tetrahydro-1,6-naphthyridine]: the Emax at 30 µM amounted to 94% and the EC50 was determined as 864 nM.
